This note sets out measurements from patent US10716869B2, “Radiolabeled macrocyclic EGFR inhibitor” (Oncodesign SA, priority 2016, dated 2020).

Values joined by “and” are separate entries in the source; they are usually repeats but may differ in a detail not shown here. Equal values may be shown once. Read-outs that look alike come from different tables or passages of the source.

The nature of series [1]: biodistribution by ex vivo γ-counting in Sprague Dawley rats. How it is done: To evaluate the biodistribution of the pure S (II) and R (III) enantiomers compared to compound (I), dynamic PET scan imaging and ex vivo gamma counting were performed on Sprague Dawley rats. Animals were injected with the radiotracer solution diluted in NaCl 0.9% to prepare a solution of activity 4-6 MBq (gamma-counting experiments) or 11-13 MBq (PET imaging experiments) in a volume of 300-400 or 600-800 μL, respectively. Radioactivity content in all biological samples was determined with scintillation γ-counter (Cobra 4180, Perkin-Elmer Inc.).
At the light of the biodistribution data of compound (I), the biodistribution of the R (III)- and S (II)-enantiomers was assessed by γ-counting in the organs in which the accumulation of compound (I) was prominent (that is: blood, heart, kidneys, liver, stomach, small intestine and colon). Two timepoints were selected: 5 and 30 minutes post-injection. […] The higher uptakes of R enantiomer (III) and S enantiomer (II) in these organs were expected to be observed at early timepoints after injection, giving the highest signals in the γ-counter and therefore making the comparison of biodistribution data more relevant. Besides, as PET images were acquired with compound (I), PET imaging was included in the evaluation of the biodistribution of R enantiomer and S enantiomer. This gave the opportunity to had one additional timepoint at 4 hours post-injection for collection of major organs and determination of radioactivity content by ex vivo γ-counting.

The test system of series [2] is human lung tumors (wild type EGFR, L858R mutated or exon 19 deleted EGFR). The series can be described thus: autoradiography on human frozen tumor sections. The following applies: ATP at 10 mM.
Description: Three types of human lung tumors were included: tumors harboring wild type EGFR and tumors carrying L858R mutated or exon 19 deleted EGFR genes.
In the next series the test system is WT NCI-H441 tumors. The series can be described thus: in vivo specificity: competition for uptake of Compound (I). The arrangement: species or system rats. To be noted: gefitinib 2 mg/rat or Compound (Ia) 1 mg/rat.
Another series is described as follows: plasma stability by HPLC. It is filed as in vitro ADME, rat. The following applies: checked up to 4 h. How it is done:
(§1) After radiosynthesis, the stability of the radiotracer was evaluated by HPLC both in its vehicle and in rat plasma. Compound (I) was formulated in physiologic serum/ethanol with the respective proportion 87.5/12.5 (v/v). A mixture of compounds (I) (i.e. radiolabelled) and (Ia) (i.e. cold analogue) was stable for up to 20 hours at room temperature in its vehicle, only one peak being detected at the expected retention time. In rat plasma two peaks were detected: one at 3.15 minutes and one at 8.02 minutes (corresponding to a mixture of compounds (I) and (Ia)) after an incubation at +37° C. for 4 hours.

Series [3] can be described thus: radiochemical stability in vehicle by HPLC. It counts as physicochemical. The following applies: conditions of formulation, storage at room temperature. As to the method: By this method, the final radiolabeled compound can be obtained with a radiochemical purity greater than 98% in 100-110 min with a yield that can reach 25% (decay corrected). It has been noticed that an uncompleted evaporation of the solvents used for the purification of [^18F]Fluoroethyltosylate hampers the second step and conducts to lower yields. Specific activity of productions was in the range of […]. The radiolabeled compound is stable in the conditions of formulation as radiochemical purity still greater than 95% 20 h after production with a storage at room temperature.
as §1

The next series concerns the target T790M (EGFR mutant) (Homo sapiens, UniProt P00533, L858R/T790M). The series can be described thus: radiometric protein kinase assay (33PanQinase Activity Assay). To be noted: Test 1; read-out: Biochemical IC50 T790M. As to the method:
A radiometric protein kinase assay (^33PanQinase® Activity Assay) was used for measuring the biochemical kinase activity of 3 protein kinases, EGFR wild-type and 2 EGFR mutants (L858R, L858R/T790M). The compounds were tested in 100% DMSO, all recombinant protein kinases and substrates with respective concentration are described in table 1.

In another series the test system is NCI-H3255 (EGFR_L858R). The series can be described thus: MTS cell viability assay, 72 hours. It counts as cell-based, Human. How it is done: (§2) The cell lines that were used to assay the cellular activity of the compounds are detailed in table 3 hereafter:
(§3) Tumor cells grew as monolayer at 37° C. in a humidified atmosphere (5% CO2) in complete culture medium adapted to each cell line. The cellular activity of the compounds was assessed by measuring the viability of cancer cell in MTS assay using a tetrazolium compound (MTS, 3-(4,5-dimethylthiazol-2-yl)-5-(3-carboxymethoxy phenyl)-2-(4-sulfophenyl)-2H-tetrazolium) and an electron coupling reagent named PMS (phenazine methosulfate). MTS is bioreduced by cells into a formazan product that is directly soluble in culture medium without processing. The cells were seeded 24 hours before treatment at the appropriate density in their culture medium to be near 90% of confluence at the end of experiment in vehicle treated conditions. After addition of compounds, the cells were incubated for 72 hours.

In the next series the test system is NCI-H441 (EGFR WT). The series can be described thus: MTS cell viability assay, 72 hours. It counts as cell-based, Human. The following applies: read-out: Cellular IC50 NCI-H441 (EGFR WT). How it is done: as §2, §3
For series [4], the system named is panel of 92 wild-type kinases. The series can be described thus: kinase selectivity, residual activity at 100 nM and 1 μM. The following applies: for selectivity score S(50): 92 wild-type kinases.
Description: Corresponding kinases and substrates were always tested at the ATP Km concentration.
Series [5] has as its target T1, EGFR T790M/L858R (human, 672-1210) (Homo sapiens, UniProt P00533, L858R/T790M).
T1 construct: (human, 672-1210)
The series can be described thus: radiometric protein kinase assay (33PanQinase Activity Assay). To be noted: Tests 1-3 are repeat determinations; read-out: Biochemical IC50 EGFR L858R/T790M. As to the method: (§4) The compounds were tested in 100% DMSO, all recombinant protein kinases and substrates with respective concentration are described in table 1.

Series [6] addresses T2, EGFR L858R (human, 672-1210) (Homo sapiens, UniProt P00533, L858R).
T2 construct: (human, 672-1210)
Described as above. To be noted: Tests 1-3 are repeat determinations; read-out: Biochemical IC50 EGFR L858R. As to the method:
as §4

Series [7] deals with T3, EGFR wt (human, 672-1210) (Homo sapiens, UniProt P00533).
T3 construct: (human, 672-1210)
The description is as above. To be noted: Tests 1-3 are repeat determinations; read-out: Biochemical IC50 EGFR WT (activated). How it is done:
as §4

T2 sequence (P00533 672-1210 L858R): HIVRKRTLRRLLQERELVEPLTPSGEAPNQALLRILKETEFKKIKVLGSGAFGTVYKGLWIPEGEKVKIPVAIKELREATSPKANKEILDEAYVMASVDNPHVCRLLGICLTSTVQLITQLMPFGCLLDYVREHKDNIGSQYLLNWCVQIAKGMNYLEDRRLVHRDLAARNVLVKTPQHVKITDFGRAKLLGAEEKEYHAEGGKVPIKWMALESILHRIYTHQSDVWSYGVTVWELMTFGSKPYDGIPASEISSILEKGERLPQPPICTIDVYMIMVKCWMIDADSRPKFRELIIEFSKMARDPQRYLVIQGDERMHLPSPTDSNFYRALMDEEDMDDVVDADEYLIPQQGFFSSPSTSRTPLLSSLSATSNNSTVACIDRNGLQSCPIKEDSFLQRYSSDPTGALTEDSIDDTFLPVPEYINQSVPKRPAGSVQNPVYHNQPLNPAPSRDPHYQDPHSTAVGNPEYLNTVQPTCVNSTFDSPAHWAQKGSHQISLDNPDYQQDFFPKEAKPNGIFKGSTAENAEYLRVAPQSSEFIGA
T3 sequence (P00533 672-1210): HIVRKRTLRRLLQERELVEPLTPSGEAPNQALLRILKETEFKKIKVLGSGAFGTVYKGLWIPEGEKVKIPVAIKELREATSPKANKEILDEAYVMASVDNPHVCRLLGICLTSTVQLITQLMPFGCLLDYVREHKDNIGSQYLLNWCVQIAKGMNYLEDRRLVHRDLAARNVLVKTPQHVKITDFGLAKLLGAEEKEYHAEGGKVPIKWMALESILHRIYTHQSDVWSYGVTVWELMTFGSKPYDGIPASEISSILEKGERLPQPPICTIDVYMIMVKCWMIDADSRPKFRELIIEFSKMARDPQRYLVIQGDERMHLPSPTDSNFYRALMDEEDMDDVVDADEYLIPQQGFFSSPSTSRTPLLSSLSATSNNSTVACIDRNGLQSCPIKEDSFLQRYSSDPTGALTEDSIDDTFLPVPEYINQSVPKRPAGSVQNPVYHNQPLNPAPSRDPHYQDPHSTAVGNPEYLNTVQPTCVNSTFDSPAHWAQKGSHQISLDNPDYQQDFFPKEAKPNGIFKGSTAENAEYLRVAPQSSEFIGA
T790M (EGFR mutant), sequence (P00533 672-1210 T790M/L858R): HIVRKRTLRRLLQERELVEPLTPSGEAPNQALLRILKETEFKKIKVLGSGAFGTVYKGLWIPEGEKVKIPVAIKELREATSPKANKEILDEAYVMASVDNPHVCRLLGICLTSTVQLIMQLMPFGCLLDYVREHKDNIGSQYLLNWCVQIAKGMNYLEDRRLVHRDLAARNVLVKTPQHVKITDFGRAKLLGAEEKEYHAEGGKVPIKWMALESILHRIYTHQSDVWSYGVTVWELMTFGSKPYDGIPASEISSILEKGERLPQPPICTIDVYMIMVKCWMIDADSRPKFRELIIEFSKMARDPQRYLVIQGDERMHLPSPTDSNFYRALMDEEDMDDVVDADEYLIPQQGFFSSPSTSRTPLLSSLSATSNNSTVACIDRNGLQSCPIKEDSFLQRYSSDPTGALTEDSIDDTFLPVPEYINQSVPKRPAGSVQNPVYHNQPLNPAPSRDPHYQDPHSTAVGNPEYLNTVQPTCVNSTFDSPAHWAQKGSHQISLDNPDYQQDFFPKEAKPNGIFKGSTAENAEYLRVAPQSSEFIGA
T1 sequence (P00533 672-1210 T790M/L858R): as above

For the molecule `CC(C)[C@H]1NC(=O)Cc2ccc(Cl)cc2Nc2ncnc3cc(OCC[18F])c(cc23)OCCCNC1=O` [(III)], the uptake in liver is given as 0.02±0.09 % ID/g in [1] (5 minutes post injection) and 0.71±0.07 % ID/g in series [1] (30 minutes post injection). For the same molecule, the “uptake in small intestine” value in series [1] (5 minutes post injection) was 0.35±0.19 % ID/g; in [1] (thirty minutes post-injection), 0.02±0.004 % ID/g. This molecule also registered an uptake in blood in [1] (5 minutes post-injection) of 0.20±0.002 % ID/g. Further, the results for the uptake in heart in series [1] (5 minutes post-injection) and in series [1] (30 minutes post-injection) were 0.99±0.02 % ID/g and 0.10±0.02 % ID/g, respectively. The uptake in kidneys in series [1] (5 minutes post-injection) was 4.15±0.79 % ID/g; in [1] (30 minutes timepoint), 0.25±0.08 % ID/g. Also, the uptake in stomach worked out at 1.86±0.73 % ID/g in series [1] (5 minutes post-injection), 0.26±0.07 % ID/g in series [1] (30 minutes timepoint) and 2.58±2.52 % ID/g in series [1] (four hours post-injection).
Take `Nc1ncnc2c1ncn2[C@@H]1O[C@H](COP(=O)(O)OP(=O)(O)OP(=O)(O)O)[C@@H](O)[C@H]1O` [ATP, reference compound]: in [2], the “competition with the binding of Compound (I) on frozen tumor sections” value is “totally abolished the binding of Compound (I)”.
`COc1cc2ncnc(Nc3ccc(F)c(Cl)c3)c2cc1OCCCN1CCOCC1` [Gefitinib, gefitinib, reference compound]: the “change of uptake of Compound (I) after competition” value with WT NCI-H441 tumors was “+16%”.
For the molecule `CC(C)[C@@H]1NC(=O)Cc2ccc(Cl)cc2Nc2ncnc3cc(OCC[18F])c(cc23)OCCCNC1=O` [Compound (II)], the uptake in liver in [1] (5 minutes post injection) is 0.97±0.92 % ID/g; in series [1] (30 minutes post injection), 0.15±0.03 % ID/g. Moreover, the “uptake in small intestine” value in [1] (5 minutes post injection) was 0.08±0.09 % ID/g; in [1] (thirty minutes post-injection) it was 0.08±0.07 % ID/g. Also, the uptake in blood in [1] (5 minutes post-injection) is on record as 0.11±0.01 % ID/g. Moreover, the results for the uptake in heart in series [1] (5 minutes post-injection) and in series [1] (30 minutes post-injection) were 1.35±0.35 % ID/g and 0.19±0.08 % ID/g, respectively. Also, the uptake in kidneys in series [1] (5 minutes post-injection) stood at 6.89±0.52 % ID/g; in [1] (30 minutes timepoint), 1.04±0.17 % ID/g. Moreover, the results for the uptake in stomach in [1] (5 minutes post-injection), in series [1] (30 minutes timepoint) and in series [1] (four hours post-injection) were 0.72±0.38 % ID/g, 0.20±0.05 % ID/g and 2.39±2.31 % ID/g, respectively. Also, in “plasma stability by HPLC”, the “Plasmatic stability” value was “without significant degradation”. Moreover, the “radiochemical purity 20 h after production” value in series [3] is “greater than 95%”.
`CC(C)[C@H]1NC(=O)Cc2ccc(Cl)cc2Nc2ncnc3cc(OCCF)c(cc23)OCCCNC1=O` [Compound (IIIa)]: the IC50 on T790M (EGFR mutant) was 54.7 nM; in the series with NCI-H3255 (EGFR_L858R) (Homo sapiens, NCI-H3255, 72 h, read-out: mean IC50 on NCI-H3255) it was 6.1 nM; in the series with NCI-H441 (EGFR WT) (Homo sapiens, NCI-H441, 72 h), 34700 nM; in the series on NCI-H441 (EGFR WT), above 25000 nM; in [5], 77.7 nM; in series [6], 2.7 nM. Also, the IC50 in series [7] amounted to 3.1 nM. Further, the “selectivity score S(50)” value in series [4] (at 100 nM) was 0.6%; in [4] (at 1 μM), 2.8%.
As to `CC(C)[C@@H]1NC(=O)Cc2ccc(Cl)cc2Nc2ncnc3cc(OCCF)c(cc23)OCCCNC1=O` [Compound (IIa)], the IC50 on T790M (EGFR mutant) is 1010 nM; with NCI-H3255 (EGFR_L858R) (Homo sapiens, NCI-H3255, 72 h, read-out: Cellular IC50 NCI-H3255 (EGFR_L858R)) it was 30 nM; in the series with NCI-H3255 (EGFR_L858R) (read-out: Cellular IC50 NCI-H3255 (EGFR_L858R)), 49 nM; in the series on NCI-H441 (EGFR WT) (Homo sapiens, NCI-H441, 72 h), above 25000 nM; in series [5] it was 924 nM; in [6], < 10 nM and 6.3 nM. Besides, in series [7], the IC50 is < 10 nM and 5.9 nM. Also, in [4] (at 100 nM), the “wild-type kinases inhibited for more than 50%” value was “EGFR and RIPK2 were the only wild-type kinases inhibited for more than 50%”. For the same molecule, the “selectivity score S(50)” value is 2.2% and 2.5% in series [4] (at 100 nM); 11.9% and 13% in series [4] (at 1 μM). Also, the “number of other kinases with inhibition of >50%” value in [4] (at 1 μM) is listed as 9.
